# Reference: patent publication US20090118204A1, “Methods and Compositions Related to Esculentoside A” (UNIVERSITY OF ROCHESTER, priority 2004, published 2009)
# “Also recorded” adds a separate entry of the source. Like-named read-outs stand apart in the source and are kept apart here.
# Experiments:
# activated thymocytes = conditions: cited from earlier work
# mice = conditions: following LPS challenge; cited from earlier work
# rat hind paws = conditions: cited from earlier work; for swelling of hind paws: induced by carrageenan
# peritoneal macrophages = conditions: macrophages from mice pretreated with thioglycolate; cited from earlier work
# [1] = system: TNF production by Raw264.7; assay: TNF production by macrophages with LPS and radiation; format: cell-based, mouse; conditions: FIG. 31, LPS and radiation
# activated macrophages = conditions: cited from earlier work
# [2] = system: IL1β production in Raw 264.7 macrophage cells; assay: IR-induced IL1β production (ELISA) in Raw 264.7; format: cell-based, mouse; conditions: 2 Gy, 24 hours culture
# Protocol: IL1β is crucial mediator in early IR toxicity of both brain and soft tissue. […] The protective effect of EsA on early IR toxicity results in part from this effect. First we determined the optimal IR dose to induce IL1 production in Raw 264.7 macrophage cells. Equal numbers of cells were exposed to 0, 2, 4 and 8 Gy IR and 24 hours later, the conditioned media were harvested and 100 μl of media from each sample was measured for IL1β concentration by specific IL1β ELISA using monoclonal antibodies (purchased from R&D Systems, Inc). […] Therefore, 2 Gy was used as optimal IR dose for Raw 264.7 for this set of tests. The cells were treated with 0.1 or 1 μg/ml of EsA for 18 hours, irradiated at 2Gy and then cultured for another 24 hours. The media were measured for protein level of IL1β by ELISA.
# mouse = assay: Alopecia and hair regrowth after 30 Gy irradiation; format: in vivo
# murine ears = conditions: induced by zylene, acute inflammation model; cited from earlier work
# ICAM-1 and CD18 = conditions: LPS-induced; cited from earlier work
# [3] = system: IL1α production by RAW264.7; assay: IL1α production by macrophages; format: cell-based, mouse; conditions: FIG. 29, in vitro macrophages
# C57BL/6 mice [4] = conditions: 40 Gy whole head; EsA 10 mg/kg i.p., Dex 3 mg/kg i.v. before IR; brains taken 24 h later; P<0.05
# Protocol: 16 hour before the whole heads of mice were irradiated at 40 Gy.
# The mice without radiation served as negative controls. Twenty four hours later, the whole brain was taken out, weighed (wet weight), placed on aluminum foil and placed in an oven at 60° C. At different time points (10 min intervals for the first 2 hours and then 4, 6, 24 hr), the brains were weighed, and the results were expressed as: % water={(wet weight−dry weight)/wet weight}×100%. The higher the % water, the greater the severity of edema. Brain % water as a function of time provided a brain drying curve.
# [5] = system: NO production in Raw264.7; assay: IR-induced NO production (nitrite, Griess) in Raw264.7; format: cell-based, mouse; conditions: EsA 0.5 or 5 μg/ml added 8 hours before 4 Gy; media 24 hours later
# Protocol: (§1) The anti-tumor effectiveness of IR is based in part on triggering the reactive oxygen species and free radicals in tumors; meanwhile, IR also damages normal tissues and causes unwanted toxicity.
# (§2) The study was carried out in Raw264.7 cells that were irradiated with 0, 2, 4 and 8 Gy. […] At this optimal condition, EsA (0.5 or 5 μg/ml) was added 8 hours before the IR at 4 Gy and 24 hours later, the media was harvested and 100 μl of media was measured for NO content in the form of nitrite. […] To see if this inhibition was cell line specific, another human macrophage cell line THP-1 was examined.
# E8.2.A3 cells = assay: Morphological changes and cell death in reporter cells; format: cell-based, mouse; conditions: 44 hours, observed twice a day
# activated splenocytes = conditions: cited from earlier work
# androgen receptor (AR) = molecular target: T1, androgen receptor (AR) (Mus musculus, UniProt P19091); assay: CAT reporter assay for hormone transactivity in E8.2.A3 cells, AR; format: cell-based; conditions: 44 hours; EsA 0.4 ng/ml to 40000 μg/ml; DHT 5×10^−7 M
# T1 construct: contain high levels of AR; endogenous in cells; host or cells: E8.2.A3 cells (mouse L cell fibroblast variant)
# Protocol: (§3) Structurally, EsA has a certain similarity with steroidal hormone, especially a steroid-like back-bone. […] A sensitive reporter system for the hormone transactivity of glucocorticoids receptor (GR) and androgen receptor (AR) was set up as elucidated in the chart (FIG. 12). […] Individual clones with stably transfected mGR and CAT reporter gene were selected with 400 μg/ml of G418 in DMEM medium containing 3% charcoal stripped new born calf serum. […] The treated cells were washed with phosphate buffer saline (PBS) once. To each well, 0.25 ml of 0.25M Tris-HCl was added. The plates underwent 3 cycles of freeze and thaw at −70° C. and room temperature followed by heating at 65° C. for 10 min by floating the plates in a hot water bath. Then, 0.1 ml of cell lysate from each well was used for the CAT assay. […] Briefly, 100 μl of cell lysate from each well were mixed with 150 μl reaction solution (128 μl of 0.25 M Tris-HCl, pH 7.8, 2 μl of the commercial ^3H-acetyl CoA and 20 μl of 2 mg/ml chloramphenicol) in the scintillation vials. To each vial, 2 ml non-aqueous scintillation fluid was added and mixed with the reaction by shaking or vortexing. The vials were counted 3-6 times in a scintillation counter at regular intervals over 1 to 4 hours.
# sensitized mice = conditions: mouse, in vivo; cited from earlier work
# [6] = cited from earlier work
# [7] = system: prostaglandin E2 (PGE2), platelet-activating factor (PAF), and nitric oxide (NO); conditions: cited from earlier work
# [8] = system: VEGF production by mouse fibroblast L-929; assay: VEGF production by fibroblasts; format: cell-based; conditions: FIG. 10
# [9] = molecular target: T2, glucocorticoids receptor (GR) (Mus musculus, UniProt P06537); assay: CAT reporter assay for hormone transactivity in E8.2.A3 cells, GR; format: cell-based; conditions: 44 hours; EsA 0.4 ng/ml to 40000 μg/ml; Dex 5×10^−7 M
# T2 construct: expressed in transfected cells
# Protocol: as §3
# [10] = system: autoimmunity animal model; conditions: in vivo; cited from earlier work
# [11] = system: granuloma induced by cotton pellet; conditions: cited from earlier work
# C57BL/6 mice [12] = assay: IR-induced early soft tissue (skin) toxicity in mice; format: in vivo, mouse; conditions: for skin damage score: day 19 after 30 Gy single dose IR, EsA 10 mg/kg i.p., Celebrex 50 mg/kg intragastric, 16 h before then daily, Table 4 criteria 1.0 normal to 5.0 necrosis, control above 4.5
# Protocol: EsA protects the soft tissue from IR-induced damage. IR sensitive and IL1β high expressing C57BL/6 mice are irradiated with 30 Gy and the skin damage is measured with a preclinical criteria (Table 4).
# The effect of EsA was examined with this model system. […] The difference was statistically significant (FIG. 7).
# A repeat experiment was performed with an increased number of mice (10 mice/group), and the EsA protective effect was confirmed.
# ovine COX-1 = molecular target: T3, ovine COX-1 (Ovis aries, UniProt P05979); assay: Cayman COX Inhibitor Screening Assay, COX-1; format: biochemical; conditions: prostanoid quantified by EIA
# T3 construct: purchased Cayman 560131
# Description: (§4) It is known that constitutive COX-1 and inducible COX-2 catalyze the production of prostaglandins (PGs) from arachidonic acid. The Cayman COX Inhibitor Screening Assay kit directly measures PGF2α produced by SnCl2 reduction of COX-derived PGH2. The prostanoid product is quantified via enzyme immunoassay (EIA) using a broadly specific antibody that binds to all the major prostaglandin compounds (FIG. 15A). To distinguish the inhibition of COX-1 from COX-2, both ovine COX-1 and human recombinant COX-2 enzymes were used as targets. […] EsA is a novel COX-2 inhibitor, which accounts for its observed protective effects on skin (FIGS. 5-7) and brain (FIGS. 8-9).
# [13] = system: Lewis' lung carcinoma cells; assay: Tumor growth of Lewis' lung carcinoma in syngeneic mice; format: in vivo, mouse; conditions: daily for 20 days, same dose as in soft tissue protection
# Description: Considering that EsA is used as a radioprotector in patients with tumors, its effect on tumor growth is a critical issue for its application.
# human recombinant COX-2 = molecular target: T4, human recombinant COX-2 (Homo sapiens, UniProt P35354); assay: Cayman COX Inhibitor Screening Assay, COX-2; format: biochemical; conditions: prostanoid quantified by EIA
# T4 construct: purchased Cayman 560131
# Description: as §4
# [14] = system: IL1β production in A431 human epidermoid carcinoma cells; assay: IR-induced IL1β production (ELISA) in A431; format: cell-based
# NO production in THP-1 = assay: IR-induced NO production in THP-1; format: cell-based, human; conditions: 0.1, 0.5 and 5 μg/ml EsA; NO up-regulated 5 fold 4 hours after IR
# Protocol: as §1, §2
# IR brain edema = conditions: cited from earlier work
# COX-2 transgenic mice = conditions: mouse, in vivo; cited from earlier work
# [15] = relative long-term use (>2-3 weeks after IR)
# T3 sequence (P05979 25-600): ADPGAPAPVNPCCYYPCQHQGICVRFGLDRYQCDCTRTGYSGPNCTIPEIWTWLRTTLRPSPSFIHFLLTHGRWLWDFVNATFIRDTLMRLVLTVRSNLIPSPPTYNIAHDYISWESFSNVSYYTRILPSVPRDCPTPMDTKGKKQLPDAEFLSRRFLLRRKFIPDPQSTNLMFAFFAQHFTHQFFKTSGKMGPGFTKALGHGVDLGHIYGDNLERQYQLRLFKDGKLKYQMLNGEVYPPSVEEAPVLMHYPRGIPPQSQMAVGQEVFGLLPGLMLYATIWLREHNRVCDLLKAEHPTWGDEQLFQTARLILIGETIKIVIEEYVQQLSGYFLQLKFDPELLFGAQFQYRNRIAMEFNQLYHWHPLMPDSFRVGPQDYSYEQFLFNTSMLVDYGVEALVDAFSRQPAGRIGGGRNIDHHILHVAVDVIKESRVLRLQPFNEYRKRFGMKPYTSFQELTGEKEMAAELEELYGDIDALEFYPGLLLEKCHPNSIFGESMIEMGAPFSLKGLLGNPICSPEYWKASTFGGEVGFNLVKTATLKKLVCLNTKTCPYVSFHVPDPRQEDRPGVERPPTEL
# T1 sequence (P19091 whole entry): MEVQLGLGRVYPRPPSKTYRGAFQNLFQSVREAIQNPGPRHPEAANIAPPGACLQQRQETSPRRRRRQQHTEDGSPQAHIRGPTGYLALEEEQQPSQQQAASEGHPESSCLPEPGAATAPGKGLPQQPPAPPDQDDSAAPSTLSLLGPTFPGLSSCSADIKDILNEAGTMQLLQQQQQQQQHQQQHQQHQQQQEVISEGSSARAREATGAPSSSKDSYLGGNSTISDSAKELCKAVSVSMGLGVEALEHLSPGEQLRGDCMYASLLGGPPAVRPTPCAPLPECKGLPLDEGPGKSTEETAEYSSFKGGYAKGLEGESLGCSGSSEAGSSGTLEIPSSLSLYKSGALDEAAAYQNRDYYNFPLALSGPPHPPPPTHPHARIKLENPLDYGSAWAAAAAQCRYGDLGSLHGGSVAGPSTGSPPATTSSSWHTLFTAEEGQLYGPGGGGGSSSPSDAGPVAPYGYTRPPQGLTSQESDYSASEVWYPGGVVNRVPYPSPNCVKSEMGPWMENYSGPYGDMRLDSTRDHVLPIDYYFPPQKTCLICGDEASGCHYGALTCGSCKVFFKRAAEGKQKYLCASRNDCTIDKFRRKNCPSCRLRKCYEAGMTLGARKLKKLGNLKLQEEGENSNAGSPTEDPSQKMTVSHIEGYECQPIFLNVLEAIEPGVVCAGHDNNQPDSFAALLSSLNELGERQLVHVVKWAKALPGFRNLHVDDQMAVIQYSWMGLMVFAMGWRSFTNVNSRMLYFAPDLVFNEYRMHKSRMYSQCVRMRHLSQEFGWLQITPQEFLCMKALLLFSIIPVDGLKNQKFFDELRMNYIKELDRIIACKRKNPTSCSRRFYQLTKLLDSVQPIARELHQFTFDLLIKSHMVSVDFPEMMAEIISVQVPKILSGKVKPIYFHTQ
# T2 sequence (P06537 whole entry): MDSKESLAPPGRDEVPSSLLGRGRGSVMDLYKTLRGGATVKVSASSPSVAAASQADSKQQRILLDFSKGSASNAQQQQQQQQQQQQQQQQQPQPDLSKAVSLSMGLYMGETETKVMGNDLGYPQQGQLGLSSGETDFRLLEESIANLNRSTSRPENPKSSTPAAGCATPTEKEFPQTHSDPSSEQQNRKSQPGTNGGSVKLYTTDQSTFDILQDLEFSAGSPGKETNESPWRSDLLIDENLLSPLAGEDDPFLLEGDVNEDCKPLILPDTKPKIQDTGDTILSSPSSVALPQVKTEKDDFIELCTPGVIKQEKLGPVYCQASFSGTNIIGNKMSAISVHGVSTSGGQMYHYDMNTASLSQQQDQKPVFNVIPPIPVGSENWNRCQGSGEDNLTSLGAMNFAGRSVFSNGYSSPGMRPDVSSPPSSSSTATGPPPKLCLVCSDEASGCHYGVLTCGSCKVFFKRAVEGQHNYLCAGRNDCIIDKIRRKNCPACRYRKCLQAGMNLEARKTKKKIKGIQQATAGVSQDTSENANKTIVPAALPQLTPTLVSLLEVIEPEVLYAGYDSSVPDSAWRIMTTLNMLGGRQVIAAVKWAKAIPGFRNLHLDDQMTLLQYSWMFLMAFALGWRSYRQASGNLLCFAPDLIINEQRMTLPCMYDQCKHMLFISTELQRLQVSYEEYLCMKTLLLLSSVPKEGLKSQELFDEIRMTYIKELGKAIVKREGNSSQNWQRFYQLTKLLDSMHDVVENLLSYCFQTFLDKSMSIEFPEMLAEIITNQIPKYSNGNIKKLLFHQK
# T4 sequence (P35354 18-604): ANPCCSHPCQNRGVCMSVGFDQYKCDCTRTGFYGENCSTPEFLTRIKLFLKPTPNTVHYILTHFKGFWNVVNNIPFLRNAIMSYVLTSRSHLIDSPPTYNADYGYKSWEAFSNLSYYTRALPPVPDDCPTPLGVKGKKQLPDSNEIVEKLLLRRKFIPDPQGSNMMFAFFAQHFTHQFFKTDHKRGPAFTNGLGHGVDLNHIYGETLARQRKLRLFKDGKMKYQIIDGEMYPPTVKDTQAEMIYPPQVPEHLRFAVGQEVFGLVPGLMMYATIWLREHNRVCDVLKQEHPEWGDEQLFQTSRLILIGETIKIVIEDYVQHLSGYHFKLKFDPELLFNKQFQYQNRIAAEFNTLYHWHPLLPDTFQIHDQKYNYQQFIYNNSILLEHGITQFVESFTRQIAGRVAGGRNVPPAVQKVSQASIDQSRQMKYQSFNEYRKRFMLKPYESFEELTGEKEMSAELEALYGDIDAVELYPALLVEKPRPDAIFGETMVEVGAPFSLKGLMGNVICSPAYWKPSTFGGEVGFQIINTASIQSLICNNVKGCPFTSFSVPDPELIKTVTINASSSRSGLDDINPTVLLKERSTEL
structure (smiles),measurement,setting,value
"COC(=O)[C@@]1(C)CC[C@]2(C(=O)O)CC[C@]3(C)C(=CC[C@@H]4[C@@]5(C)C[C@H](O)[C@H](O[C@@H]6OC[C@@H](O[C@@H]7O[C@H](CO)[C@@H](O)[C@H](O)[C@H]7O)[C@H](O)[C@H]6O)[C@@](C)(CO)[C@@H]5CC[C@]43C)[C@@H]2C1 [EsA, Esculentoside A]",apoptosis of activated thymocytes,activated thymocytes,accelerated
same,"TNF, IL-1 and IL-6 levels in the sera",mice,dose-dependently decreased
same,duration of the effects,rat hind paws; acute inflammation models,more than 5 hours
same,swelling of hind paws,rat hind paws; adrenalectomised rat,suppressed
same,swelling of hind paws,rat hind paws,inhibited
same,"release of TNF, IL-1 and IL-6",peritoneal macrophages,significantly reduced
same,TNF production,[1],inhibitory effect
same,"macrophage functions (phagocytosis, antibody production, secretion of cytokines)",activated macrophages,diminished
same,IR-induced production of IL1β,[2]; EsA 0.1 μg/ml for 18 hours,dramatically inhibited; also recorded: reduced
same,IR-induced production of IL1β,"[2]; EsA 1 μg/ml for 18 hours, P<0.01",reduced the IL1β to the basal level
same,hair regrowth / duration of alopecia,"mouse; 30 Gy, Celebrex i.g. 50 mg/kg for 20 days",after two weeks
same,recovery of cranial alopecia,mouse; EsA compared with celebrex,recovered more quickly and completely
same,swelling of ears,murine ears,markedly lowered
same,expression of adhesion molecules ICAM-1 and CD18,ICAM-1 and CD18,suppressed
same,IL1α production,[3],inhibitory effect
same,brain edema (% water),C57BL/6 mice [4],reduction of brain edema was statistically significant; also recorded: less extensive brain edema; also recorded: can reduce IR-induced brain edema
same,IR-induced NO production,[5],inhibited
same,concentration at which death of cells was observed,E8.2.A3 cells,40000 µg/mL
same,concentration with no morphological change of cells,E8.2.A3 cells,below 4 mg/ml
same,production of IL-2,activated splenocytes,inhibited
same,androgen hormone transactivity (CAT activity),androgen receptor (AR),neither androgen nor glucocorticoidal hormone transactivity
same,serum hemolysin concentration,sensitized mice,markedly decreased
same,water-solubility,[6],high water-solubility
same,"production of PGE2, PAF and NO",[7],inhibited
same,VEGF production,[8],inhibitory effect
same,glucocorticoidal hormone transactivity (CAT activity),[9],neither androgen nor glucocorticoidal hormone transactivity
same,inflammation of joint and viscera,[10],decreased
same,proliferation of granuloma,[11],significantly inhibited
same,protection of soft tissue,"C57BL/6 mice [12]; 4 weeks after 30 Gy IR, same dosing",effectively protected the soft tissue
same,skin damage score,C57BL/6 mice [12],about 2
same,early IR skin toxicity,C57BL/6 mice [12]; [15],prevented
same,second wave of IL1β,C57BL/6 mice [12]; [15],blocked
same,signs of sickness,C57BL/6 mice [12]; whole course of EsA treatment,no signs of sickness were observed
same,effect on COX-1,ovine COX-1,no effect
same,tumor growth,[13],little effect on tumor growth
same,effect on COX-2,human recombinant COX-2,inhibited the COX-2 in a dose-dependent manner
same,IL1β induced by IR,"[14]; EsA 0.1 μg/ml, 4 Gy, P<0.01",inhibited; also recorded: reduced
same,IL1β production induced by IR in vitro in epithelial cells,[14]; FIG. 27,inhibitory effect
same,reduction of NO production,NO production in THP-1,3 fold
CS(=O)(=O)Nc1ccc([N+](=O)[O-])cc1OC1CCCCC1 [NS-398],induction of prostanoid and IR brain edema,IR brain edema; Moore et al. 2004,blocked
same,IR toxicity in brain and soft tissue,"IR brain edema; mouse, in vivo",protected
"Cc1ccc(-c2cc(C(F)(F)F)nn2-c2ccc(S(N)(=O)=O)cc2)cc1 [Celebrex, celecoxib, reference compound]",skin damage score,C57BL/6 mice [12],about 3
COc1ccc2c(c1)c(CC(=O)O)c(C)n2C(=O)c1ccc(Cl)cc1 [indomethacin],microvessel density,COX-2 transgenic mice,strongly decreased
same,tumor progression,COX-2 transgenic mice,inhibited
same,upregulation of angiogenic regulatory genes in mammary tissue,COX-2 transgenic mice,inhibited
